# According to article PMC7880554 (ACS chemical biology, 2016):
# Target: Culp1 (Rv1984c) (Mycobacterium tuberculosis, UniProt P9WP43)
# Conditions: band identified by mass spectrometry; transposon mutant control
# Culp1 (Rv1984c), sequence (P9WP43 33-217): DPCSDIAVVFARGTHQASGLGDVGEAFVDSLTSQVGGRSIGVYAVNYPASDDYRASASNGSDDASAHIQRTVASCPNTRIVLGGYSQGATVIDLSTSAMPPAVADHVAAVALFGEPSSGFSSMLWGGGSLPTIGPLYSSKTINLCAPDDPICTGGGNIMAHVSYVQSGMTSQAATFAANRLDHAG
smiles,measurement,value
CCCCCCCC(=O)OCOc1ccc2c(c1)C(C)(C)C1=C(Cl)C(=O)C(Cl)=CC1=N2 [DDAO-7-OME],"in-gel fluorogenic activity, native PAGE-resolved lysate",DDAO-7-OME provided the clearest Mtb banding patterns in these complex lysates and revealed Culp1 activity
